Tested on: Inflammatory Linear Verrucous Epidermal Nevus (ILVEN)
Test: Topical cholesterol/simvastatin treatment of patients with ILVEN
Type: in vivo, human
Settings: patient 9, localised ILVEN left arm; tried after no response to cholesterol/simvastatin
Text: Fourteen patients with ILVEN were recruited. Photographs were taken of all cases as a baseline. DNA was extracted directly from lymphocytes and from affected skin biopsy without culture, using standard methods. Where possible a second skin biopsy of affected skin was also obtained for primary keratinocyte culture and immortalization with HPV to establish a stable cell line. In a minority of cases a skin biopsy of normal skin was also taken for keratinocyte culture and immortalization. Histopathology of affected skin was obtained in all cases. Thirteen of the fourteen patients were treated with […]/2% simvastatin in Unguentum Merck, applied topically twice a day for a minimum period of three months in the first instance, and only applied to one designated area of affected skin, using the rest of the skin as an internal control. If there was no response in this time the treatment was stopped. Where there was a positive response the treatment has been continued, and extended gradually to different body areas.

With `CC(C)CCC[C@@H](C)[C@H]1CC[C@H]2[C@@H]3CC=C4C[C@@H](O)CC[C@]4(C)[C@H]3CC[C@]12C` [cholesterol, Cholesterol] the “Response to cholesterol only” value was “no”.

From patent US12023318B2, “Therapy for Inflammatory Linear Verrucous Epidermal Nevus (ILVEN)” (UCL Business Ltd, priority 2018, dated 2024)
